What was measured:
[1] = test system: Alpha-hemolytic streptococci; test: β-D-ribosidase substrates in Columbia agar, colored or fluorescent colonies; assay type: cell-based, alpha-hemolytic Streptococcus
Description: (§1) The media hereinafter were prepared in 200 ml of a Columbia agar base (Oxoid), in combination with the chromogenic β-D-ribosidase substrates. The various substrates and also the concentrations and the additives used in the media are described in Table 1 below:
(§2) The β-D-ribosidase substrates are solubilized in DMSO and added to the media so as to obtain the concentrations indicated in Table 1.
(§3) 191 bacterial strains were inoculated onto each of the media using a suspension at 0.5 MacFarland diluted to 1/1000. The dishes were incubated at 37° C. and then read.
(§4) The media were distributed into Petri dishes, then inoculated with approximately 100 000 CFU, then incubated at 37° C. for 48 h. The colonies formed were examined visually after incubation times of 18, 24 and 48 hours.
(§5) The stock collection of 191 strains comprised: […], 48 Staphylococcus spp, 61 Enterococcus spp and 3 alpha-hemolytic Streptococcus.

[2] = test system: Coagulase-negative Staphylococci; test: as above; assay type: cell-based, Staphylococcus spp; conditions: for % of strains producing colored or fluorescent colonies: Coagulase-negative Staphylococci
Description: as §1, §2, §3, §4, §5

S. aureus (MRSA) = test: as above; assay type: cell-based, Staphylococcus aureus
Description: as §1, §2, §3, §4, §5

S. aureus (MSSA) = test: as above; assay type: cell-based, Staphylococcus aureus
Description: as §1, §2, §3, §4, §5

S aureus (MRSA and MSSA) = test: Catechol-β-D-riboside and X-β-D-riboside on a broad panel of Staphylococcus spp; assay type: cell-based; conditions: modified Chapman medium without NaCl, 60 mg/l substrate
Description: (§6) Catechol-β-D-riboside: A GTS medium (bioMérieux) supplemented with 300 mg/l of catechol-β-D-riboside, then autoclaved, and with 500 mg/l of ammoniacal iron citrate was used and distributed into Petri dishes 55 mm in diameter.
(§7) X-β-D-riboside: A modified Chapman medium, without NaCl, autoclaved and supplemented with 60 mg/l of X-β-D-riboside, was used and distributed into Petri dishes 55 mm in diameter.
For the two media, the inoculation was carried out using precultures prepared for 24 h at 37° C. A suspension in physiological saline at 0.5 McF was prepared and then each strain was inoculated onto a dish using a 10 μl calibrated loop. […]
(§8) In total, […] were tested: 34 S. aureus, including 25 MRSAs, and 46 other species of Staphylococcus (including S. schleiferi; S. capitis; S. hyicus; S. intermedius; S. haemolyticus; S. auricularis; S. hominis; S. warneri; S. chromogenes; S. cohnii; S. epidermidis; S. sciuri; S. xylosus; S. saprophyticus).

Coag neg = test: as above; assay type: cell-based; conditions: modified Chapman medium without NaCl, 60 mg/l substrate
Description: as §6, §7
For the two media, the inoculation was carried out using precultures prepared for 24 h at 37° C. A suspension in physiological saline at 0.5 McF was prepared and then each strain was inoculated onto a dish using a 10 μl calibrated loop.
The readings were carried out after 24 and 48 hours of incubation at 37° C.
as §8

Micrococcus luteus = test: β-D-ribosidase substrates in Columbia agar, colored or fluorescent colonies; assay type: cell-based
Description: [The procedure below names another organism; the source lists this organism under the same test.] as §1, §2, §3, §4, §5

Enterococci = test: as above; assay type: cell-based, Enterococcus spp
Description: as §1, §2, §3, §4, §5

5-Bromo-4-chloro-3-indoxyl-beta-D-riboside [X-β-riboside]
% of strains producing colored or fluorescent colonies ([1]; 80 mg/L, 18 h): 0%
% of strains producing colored or fluorescent colonies ([1]; 80 mg/L, 24 h): 0%
% of strains producing colored or fluorescent colonies ([1]; 80 mg/L, 48 h): 0%
% of strains producing colored or fluorescent colonies ([1]; 200 mg/L, 18 h): 0%
% of strains producing colored or fluorescent colonies ([1]; 200 mg/L, 24 h): 0%
% of strains producing colored or fluorescent colonies ([1]; 200 mg/L, 48 h): 0%
% of strains producing colored or fluorescent colonies ([2]; 80 mg/L, 18 h): 3%
% of strains producing colored or fluorescent colonies ([2]; 80 mg/L, 24 h): 6%
% of strains producing colored or fluorescent colonies ([2]; 80 mg/L, 48 h): 6%
% of strains producing colored or fluorescent colonies ([2]; 200 mg/L, 18 h): 3%
% of strains producing colored or fluorescent colonies ([2]; 200 mg/L, 24 h): 3%
% of strains producing colored or fluorescent colonies ([2]; 200 mg/L, 48 h): 3%
false positives among the coagulase-negative staphylococci ([2]; Columbia agar, 24 h of incubation, concentration not given): 3%
% of strains producing colored or fluorescent colonies (S. aureus (MRSA); 80 mg/L, 18 h): 84%
% of strains producing colored or fluorescent colonies (S. aureus (MRSA); 80 mg/L, 24 h): 92%
% of strains producing colored or fluorescent colonies (S. aureus (MRSA); 80 mg/L, 48 h): 97%
% of strains producing colored or fluorescent colonies (S. aureus (MRSA); 200 mg/L, 18 h): 82%
% of strains producing colored or fluorescent colonies (S. aureus (MRSA); 200 mg/L, 24 h): 87%
% of strains producing colored or fluorescent colonies (S. aureus (MRSA); 200 mg/L, 48 h): 95%
% of strains producing colored or fluorescent colonies (S. aureus (MSSA); 80 mg/L, 18 h): 64%
% of strains producing colored or fluorescent colonies (S. aureus (MSSA); 80 mg/L, 24 h): 100%
% of strains producing colored or fluorescent colonies (S. aureus (MSSA); 80 mg/L, 48 h): 100%
% of strains producing colored or fluorescent colonies (S. aureus (MSSA); 200 mg/L, 18 h): 64%
% of strains producing colored or fluorescent colonies (S. aureus (MSSA); 200 mg/L, 24 h): 64%
% of strains producing colored or fluorescent colonies (S. aureus (MSSA); 200 mg/L, 48 h): 100%
Number of strains producing a coloration/total number of strains, positive at 18 h (S aureus (MRSA and MSSA); 18 h): 17/34
Number of strains producing a coloration/total number of strains, positive at 24 h (S aureus (MRSA and MSSA); 24 h): 29/34
Number of strains producing a coloration/total number of strains, positive at 48 h (S aureus (MRSA and MSSA); 48 h): 33/34
Number of strains producing a coloration/total number of strains, positive at 18 h (Coag neg; 18 h): 7/46
Number of strains producing a coloration/total number of strains, positive at 24 h (Coag neg; 24 h): 12/46
Number of strains producing a coloration/total number of strains, positive at 48 h (Coag neg; 48 h): 14/46
% of strains producing colored or fluorescent colonies (Micrococcus luteus; 80 mg/L, 18 h): 0%
% of strains producing colored or fluorescent colonies (Micrococcus luteus; 80 mg/L, 24 h): 0%
% of strains producing colored or fluorescent colonies (Micrococcus luteus; 80 mg/L, 48 h): 0%
% of strains producing colored or fluorescent colonies (Micrococcus luteus; 200 mg/L, 18 h): 0%
% of strains producing colored or fluorescent colonies (Micrococcus luteus; 200 mg/L, 24 h): 0%
% of strains producing colored or fluorescent colonies (Micrococcus luteus; 200 mg/L, 48 h): 0%
% of strains producing colored or fluorescent colonies (Enterococci; 80 mg/L, 18 h): 2%
% of strains producing colored or fluorescent colonies (Enterococci; 80 mg/L, 24 h): 2%
% of strains producing colored or fluorescent colonies (Enterococci; 80 mg/L, 48 h): 2%
% of strains producing colored or fluorescent colonies (Enterococci; 200 mg/L, 18 h): 2%
% of strains producing colored or fluorescent colonies (Enterococci; 200 mg/L, 24 h): 2%
% of strains producing colored or fluorescent colonies (Enterococci; 200 mg/L, 48 h): 2%

5-Bromo-6-chloro-3-indoxyl-beta-D-riboside [Magenta-β-riboside]
% of strains producing colored or fluorescent colonies ([1]; 100 mg/L, 18 h): 0%
% of strains producing colored or fluorescent colonies ([1]; 100 mg/L, 24 h): 0%
% of strains producing colored or fluorescent colonies ([1]; 100 mg/L, 48 h): 0%
% of strains producing colored or fluorescent colonies ([2]; 100 mg/L, 18 h): 0%
% of strains producing colored or fluorescent colonies ([2]; 100 mg/L, 24 h): 3%
% of strains producing colored or fluorescent colonies ([2]; 100 mg/L, 48 h): 6%
% of strains producing colored or fluorescent colonies (S. aureus (MRSA); 100 mg/L, 18 h): 71%
% of strains producing colored or fluorescent colonies (S. aureus (MRSA); 100 mg/L, 24 h): 85%
% of strains producing colored or fluorescent colonies (S. aureus (MRSA); 100 mg/L, 48 h): 95%
% of strains producing colored or fluorescent colonies (S. aureus (MSSA); 100 mg/L, 18 h): 64%
% of strains producing colored or fluorescent colonies (S. aureus (MSSA); 100 mg/L, 24 h): 64%
% of strains producing colored or fluorescent colonies (S. aureus (MSSA); 100 mg/L, 48 h): 100%
% of strains producing colored or fluorescent colonies (Micrococcus luteus; 100 mg/L, 18 h): 0%
% of strains producing colored or fluorescent colonies (Micrococcus luteus; 100 mg/L, 24 h): 0%
% of strains producing colored or fluorescent colonies (Micrococcus luteus; 100 mg/L, 48 h): 0%
% of strains producing colored or fluorescent colonies (Enterococci; 100 mg/L, 18 h): 0%
% of strains producing colored or fluorescent colonies (Enterococci; 100 mg/L, 24 h): 2%
% of strains producing colored or fluorescent colonies (Enterococci; 100 mg/L, 48 h): 2%

Reference: US20100297692A1, “REACTION MEDIUM FOR DETECTING AND/OR IDENTTIFYING STAPHYLOCCOUS AUREUS” (BIOMERIEUX, priority 2007, published 2010)
